In publication PMC12364708, “Structures and mechanism of the AUX/LAX transporters involved in auxin import” (Nature Plants, 2025):

Legend:
LAX3 = molecular target: T1, LAX3 (Arabidopsis thaliana, UniProt Q9CA25); assay: competition with 3H-IAA uptake into Xenopus oocytes; format: cell-based; conditions: 100 nM 3H-IAA; pH 6, room temperature, 8 min; competitive
T1 construct: full-length wild type, cRNA injected into Xenopus laevis oocytes
T1 sequence (Q9CA25 1-470): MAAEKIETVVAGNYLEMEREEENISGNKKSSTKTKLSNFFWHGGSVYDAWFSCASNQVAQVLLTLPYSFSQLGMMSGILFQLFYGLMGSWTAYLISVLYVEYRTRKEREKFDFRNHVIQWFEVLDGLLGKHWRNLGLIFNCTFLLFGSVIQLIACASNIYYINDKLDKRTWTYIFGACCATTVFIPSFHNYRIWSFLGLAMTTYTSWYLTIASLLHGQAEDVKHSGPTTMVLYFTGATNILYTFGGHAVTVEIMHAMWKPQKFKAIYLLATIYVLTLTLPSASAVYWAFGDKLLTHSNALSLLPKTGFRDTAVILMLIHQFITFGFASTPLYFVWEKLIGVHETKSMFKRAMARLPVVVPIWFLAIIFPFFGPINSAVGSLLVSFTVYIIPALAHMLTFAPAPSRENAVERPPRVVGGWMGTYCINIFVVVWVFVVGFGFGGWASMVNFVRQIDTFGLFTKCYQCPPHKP

LAX3 (residues 44–470) [1] = molecular target: T2, LAX3 (residues 44–470) (Arabidopsis thaliana, UniProt Q9CA25); assay: cryo-EM structure, […] Å; conditions: pH 7.5; 5 mM 2-NOA; LMNG; central binding pocket, fully occluded
T2 construct: N-terminally truncated, residues 44-470; C-terminal TEV site and His10 tag, cut with TEV; expressed in Saccharomyces cerevisiae DSY-5; LMNG/CHS; 47 kDa
T2 sequence (Q9CA25 44-470): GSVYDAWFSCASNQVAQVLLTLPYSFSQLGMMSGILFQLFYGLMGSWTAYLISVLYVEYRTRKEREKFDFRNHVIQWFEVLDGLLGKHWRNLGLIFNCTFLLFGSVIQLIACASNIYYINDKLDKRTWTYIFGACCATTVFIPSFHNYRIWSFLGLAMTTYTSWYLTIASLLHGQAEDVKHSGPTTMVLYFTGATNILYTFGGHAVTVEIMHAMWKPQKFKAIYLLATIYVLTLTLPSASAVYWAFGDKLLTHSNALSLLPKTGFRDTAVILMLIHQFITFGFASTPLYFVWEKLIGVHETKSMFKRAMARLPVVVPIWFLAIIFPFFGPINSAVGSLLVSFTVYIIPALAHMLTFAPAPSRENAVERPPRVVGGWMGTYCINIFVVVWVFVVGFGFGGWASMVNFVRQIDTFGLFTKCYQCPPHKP

LAX3 (residues 44–470) [2] = molecular target: T2, LAX3 (residues 44–470); assay: cryo-EM structure, […] Å; conditions: pH 7.5; 5 mM IAA; LMNG; central binding pocket, inward semi-occluded

SMILES: O=C(O)COc1cccc2ccccc12 [1-NOA]
- inhibition of IAA uptake at 10 μM (LAX3): these data demonstrate a competitive effect of all three compounds

SMILES: O=C(O)COc1ccc(Cl)cc1Cl [2,4-D]
- inhibition of IAA uptake at 10 μM (LAX3): these data demonstrate a competitive effect of all three compounds

SMILES: O=C(O)COc1ccc2ccccc2c1 [2-NOA]
- cryo-EM structure, 2.88 Å (LAX3 (residues 44–470) [1]): 2-NOA bound LAX3 fully occluded: PDB 9H63 and EMD-51896
- inhibition of IAA uptake at 10 μM (LAX3): these data demonstrate a competitive effect of all three compounds

SMILES: O=C(O)Cc1c[nH]c2ccccc12 [IAA]
- cryo-EM structure, 3.21 Å (LAX3 (residues 44–470) [2]): IAA-bound LAX3 inward semi-occluded: PDB 9H61 and EMD-51894
